The values that follow come from patent US20230357272A1, “OCTAHYDROPYRAZINODIAZANAPHTHYRIDINE DIONE COMPOUNDS” (MEDSHINE DISCOVERY INC., priority 2020, published 2023).

In one assay the test system is NCI-H358 cells. As to the kind of experiment: Anti-proliferation experiment of H358 cells (CellTiter-Glo). It counts as cell-based. Particulars: Homo sapiens, 120 h, 5 days. The procedure:
RPMI-1640 culture medium, penicillin/streptomycin antibiotics purchased from Wisent, and fetal bovine serum purchased from Biosera. CellTiter-Glo (chemiluminescence detection reagent for cell viability) reagent purchased from Promega. NCI-H358 cell line purchased from the Cell Bank of the Chinese Academy of Sciences. Nivo multi-label analyzer (PerkinElmer).
NCI-H358 cells were seeded in a white 96-well plate with 80 μL of cell suspension per well, which contained 4000 NCI-H358 cells. The cell plate was incubated overnight in a carbon dioxide incubator.
(§1) The compounds to be tested were diluted 3-fold with a row gun to the ninth concentration, that is, from 2 mM to 304 nM, and a double-duplication experiment was set up. 78 μL of culture medium was added to a middle plate, and then 2 μL of gradient diluted compound per well was transferred to the middle plate according to the corresponding position. After being thoroughly mixed, 20 μL per well was transferred to the cell plate. The concentration range of the compound transferred to the cell plate was 10 μM to 1.52 nM. The cell plate was placed in the carbon dioxide incubator for 5 days. Another cell plate was prepared, and the signal value was read as the maximum value (Max value in the equation below) on the day of administration to participate in data analysis. 25 μL of cell viability chemiluminescence detection reagent was added to each well of the cell plate, and incubated at room temperature for 10 minutes to stabilize the luminescence signal. A multi-label analyzer was used for reading.
25 μL of cell viability chemiluminescence detection reagent was added to each well of the cell plate, and incubated at room temperature for 10 minutes to stabilize the luminescence signal. A multi-label analyzer was used for reading.
Using the equation (Sample−Min)/(Max−Min)*100% to convert the raw data into inhibition rate, and the value of IC50 might be obtained by curve fitting with four parameters (obtained by “log (inhibitor) vs. response—Variable slope” mode in GraphPad Prism). Table 1 provides the inhibitory activity of the compounds of the present disclosure on the proliferation of NCI-H358 cells.

In the next assay the test system is MIA-PA-CA-2 cells. As to the kind of experiment: Anti-proliferation experiment of MIA-PA-CA-2 cells (CellTiter-Glo). It counts as cell-based. Particulars: Homo sapiens, MIA PaCa-2, 72 h, 3 days. The procedure: DMEM culture medium, fetal bovine serum purchased from Biosera, and horse serum purchased from Gibco. CellTiter-Glo (chemiluminescence detection reagent for cell viability) reagent purchased from Promega. MIA-PA-CA-2 cell line purchased from Nanjing CoBioer Biotechnology Co., Ltd. EnVision multi-label analyzer (PerkinElmer).
MIA-PA-CA-2 cells were seeded in a white 96-well plate with 80 μL of cell suspension per well, which contained 1000 MIA-PA-CA-2 cells. The cell plate was incubated overnight in a carbon dioxide incubator.
as §1, with “diluted 5-fold” for “diluted 3-fold”, “the eighth” for “the ninth”, “to 26” for “to 304”, “to 0.13” for “to 1.52”, “for 3” for “for 5”
Using the equation (Sample−Min)/(Max−Min)*100% to convert the raw data into inhibition rate, and the value of IC50 might be obtained by curve fitting with four parameters (obtained by “log (inhibitor)/response—Variable scope” mode in GraphPad Prism software). Table 2 provides the inhibitory activity of the compounds of the present disclosure on the proliferation of MIA-PA-CA-2 cells.

Each structure is given as a SMILES string.

What is called IC50 is the midpoint of a concentration-inhibition curve. Low values mean greater potency in that assay, high ones weaker potency in that assay. As to `C=CC(=O)N1CCN2c3c(c(=O)n(-c4c(C(C)C)ncnc4C(C)C)c4c(=O)n(-c5c(N)c(Cl)cc(Cl)c5F)c(C(F)(F)F)cc34)OCC[C@H]2C1` [Compound 4], the IC50 in the assay with NCI-H358 cells worked out at 0.9 nM; in the assay on MIA-PA-CA-2 cells, 1 nM.

Consider `C=CC(=O)N1CCN2c3c(c(=O)n(-c4c(CC)ncnc4CC)c4c(=O)n(-c5c(N)c(Cl)cc(Cl)c5F)c(C(F)(F)F)cc34)OCC[C@H]2C1` [Compound 5], for which the IC50 in the assay on NCI-H358 cells turned out to be 4 nM; with MIA-PA-CA-2 cells it was 5 nM.

As for `C=CC(=O)N1CCN2c3c(c(=O)n(-c4c(CC)cncc4CC)c4c(=O)n(-c5c(N)c(Cl)cc(Cl)c5F)c(C(F)(F)F)cc34)OCC[C@H]2C1` [Compound 6], the IC50 was 2 nM in the assay with NCI-H358 cells and 4 nM in the assay on MIA-PA-CA-2 cells.
